Literature values in patent US6663901B1, “Pellets having a core coated with an antifungal and a polymer” (Janssen Pharmaceutical N.V., priority 1998, dated 2003).

solubility in water: only very sparingly soluble
SMILES: CCC(C)n1ncn(-c2ccc(N3CCN(c4ccc(OCC5COC(Cn6cncn6)(c6ccc(Cl)cc6Cl)O5)cc4)CC3)cc2)c1=O (racemic) [itraconazole, (±)-cis-4-[4-[4-[4-[[2-(2,4-dichlorophenyl)-2-(1H-1,2,4-triazol-1-methyl)-1,3-dioxolan-4-yl]methoxy]phenyl]-1-piperazinyl]phenyl]-2,4-dihydro-2-(1-methylpropyl)-3H-1,2,4-triazol-3-one]
